Source: US10030020B2, “Spirocycle compounds and methods of making and using same” (Abide Therapeutics, Inc., priority 2016, dated 2018)

How the values were obtained:
MAGL [1] = target: T1, MAGL (Mus musculus (Mouse), UniProt O35678); assay: In vitro competitive activity-based protein profiling (mouse brain membrane fraction or cell lysates), MAGL band; assay type: biochemical; details: mouse proteome; for inhibition at 1 µM: read-out: MAGL % Inh 1 μM (mouse); for IC50: competitive ABPP
Experimental: In Vitro Competitive Activity-Based Protein Profiling.
Proteomes (mouse brain membrane fraction or cell lysates) (50 μL, 1.0 mg/mL total protein concentration) were preincubated with varying concentrations of inhibitors at 37° C. After 30 min, FP—Rh (1.0 μL, 50 μM in DMSO) was added and the mixture was incubated for another 30 min at 37° C. Reactions were quenched with SDS loading buffer (50 μL-4×) and run on SDS-PAGE.

ABHD6 [2] = target: T2, ABHD6 (Mus musculus (Mouse), UniProt Q8R2Y0); assay: In vitro competitive activity-based protein profiling (mouse brain membrane fraction or cell lysates), ABHD6 band; assay type: biochemical; details: mouse proteome; for inhibition at 1 µM: read-out: ABHD6 % Inh 1 μM (mouse); for IC50: competitive ABPP
Summary of the method: (§1)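 Mouse proteome samples (brain membrane fraction or cell lysate, 1.0 mg/mL protein) were pretreated with varying inhibitor concentrations and subsequently probed with fluorophosphonate-rhodamine, each step lasting 30 min at 37° C. Labelled proteins were separated by SDS-PAGE, and band fluorescence was imaged and quantified.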

FAAH [3] = target: T3, FAAH (Mus musculus (Mouse), UniProt O08914); assay: In vitro competitive activity-based protein profiling (mouse brain membrane fraction or cell lysates), FAAH band; assay type: biochemical; details: mouse proteome; for inhibition at 1 µM: read-out: FAAH % Inh 1 μM (mouse); for IC50: competitive ABPP
Summary of the method: as §1

MAGL [4] = target: T1, MAGL; assay: Mouse brain proteomes from inhibitor treated mice (oral gavage, sacrificed 4 h after administration, ABPP analysis); assay type: in vivo, mouse (C57Bl/6J); details: 5 mg/kg oral gavage
Summary of the method: (§2)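 Values give % inhibition in brain after a 5 mg/kg oral gavage dose to wild-type C57Bl/6J mice, with vehicle e.g. PEG400/Ethanol/PBS (7/2/1). Animals were killed 4 h post-dose and brain proteome activity was read by ABPP.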

FAAH [5] = target: T3, FAAH; assay: Mouse brain proteomes from inhibitor treated mice (oral gavage, sacrificed 4 h after administration, ABPP analysis), FAAH; assay type: in vivo, mouse (C57Bl/6J); details: 5 mg/kg oral gavage
Summary of the method: as §2

ABHD6 [6] = target: T2, ABHD6; assay: Mouse brain proteomes from inhibitor treated mice (oral gavage, sacrificed 4 h after administration, ABPP analysis), ABHD6; assay type: in vivo, mouse (C57Bl/6J); details: 5 mg/kg oral gavage
Summary of the method: as §2

T3 sequence (O08914 whole entry): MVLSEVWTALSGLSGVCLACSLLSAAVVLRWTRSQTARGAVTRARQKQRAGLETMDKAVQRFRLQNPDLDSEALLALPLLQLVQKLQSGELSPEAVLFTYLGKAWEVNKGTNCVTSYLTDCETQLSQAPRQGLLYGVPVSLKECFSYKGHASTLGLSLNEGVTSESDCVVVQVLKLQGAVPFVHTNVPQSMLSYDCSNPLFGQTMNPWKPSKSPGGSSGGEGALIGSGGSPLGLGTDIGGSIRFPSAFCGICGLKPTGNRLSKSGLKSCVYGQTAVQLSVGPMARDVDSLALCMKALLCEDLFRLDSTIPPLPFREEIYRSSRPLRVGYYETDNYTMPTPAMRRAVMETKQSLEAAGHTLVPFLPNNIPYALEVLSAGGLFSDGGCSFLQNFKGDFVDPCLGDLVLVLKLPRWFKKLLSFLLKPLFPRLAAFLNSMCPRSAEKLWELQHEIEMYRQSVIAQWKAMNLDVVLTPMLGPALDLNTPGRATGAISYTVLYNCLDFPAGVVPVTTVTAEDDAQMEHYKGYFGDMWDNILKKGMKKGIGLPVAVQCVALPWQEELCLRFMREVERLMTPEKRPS
T2 sequence (Q8R2Y0 whole entry): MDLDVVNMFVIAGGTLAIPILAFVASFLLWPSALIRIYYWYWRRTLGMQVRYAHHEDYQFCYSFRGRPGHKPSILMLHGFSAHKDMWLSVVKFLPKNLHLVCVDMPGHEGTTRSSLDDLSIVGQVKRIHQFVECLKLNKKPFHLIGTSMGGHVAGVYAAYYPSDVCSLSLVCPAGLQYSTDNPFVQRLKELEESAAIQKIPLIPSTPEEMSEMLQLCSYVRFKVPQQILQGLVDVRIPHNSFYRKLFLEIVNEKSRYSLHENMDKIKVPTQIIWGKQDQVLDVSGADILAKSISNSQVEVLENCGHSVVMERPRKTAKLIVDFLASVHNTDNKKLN
T1 sequence (O35678 whole entry): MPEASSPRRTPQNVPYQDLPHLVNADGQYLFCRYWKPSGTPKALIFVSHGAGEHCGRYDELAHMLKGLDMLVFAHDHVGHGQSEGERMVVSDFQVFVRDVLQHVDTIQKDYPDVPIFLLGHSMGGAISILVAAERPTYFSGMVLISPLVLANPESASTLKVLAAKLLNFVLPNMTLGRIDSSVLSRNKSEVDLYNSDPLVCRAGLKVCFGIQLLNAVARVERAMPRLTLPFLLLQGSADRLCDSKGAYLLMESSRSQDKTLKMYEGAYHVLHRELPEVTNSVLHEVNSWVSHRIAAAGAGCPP

| Structure (SMILES) | inhibition at 1 µM (MAGL [1]) | IC50 (MAGL [1]) | inhibition at 1 µM (ABHD6 [2]) | IC50 (ABHD6 [2]) | inhibition at 1 µM (FAAH [3]) | IC50 (FAAH [3]) | MAGL % Inh 5 mg/kg (mouse) (MAGL [4]) | FAAH % Inh 5 mg/kg (mouse) (FAAH [5]) | ABHD6 % Inh 5 mg/kg (mouse) (ABHD6 [6]) |
| --- | --- | --- | --- | --- | --- | --- | --- | --- | --- |
| CC(=O)N1CCN(c2cc(C(F)(F)F)ccc2CN2CCCC23CCN(C(=O)OC(C(F)(F)F)C(F)(F)F)CC3)CC1 [Example 88, 1,1,1,3,3,3-Hexafluoropropan-2-yl 1-(2-(4-acetylpiperazin-1-yl)-4-(trifluoromethyl)benzyl)-1,8-diazaspiro[4.5]decane-8-carboxylate] | > 75% | < 100 nM | < 25% | > 1000 nM | < 25% | > 1000 nM | ## (## is equal to or greater than 25% but less than 75%) | # (# is <25%) | # (# is <25%) |
| CS(=O)(=O)N1CCN(c2cc(C(F)(F)F)ccc2CN2CCCC23CCN(C(=O)OC(C(F)(F)F)C(F)(F)F)CC3)CC1 [Example 89, 1,1,1,3,3,3-Hexafluoropropan-2-yl 1-(2-(4-(methylsulfonyl)piperazin-1-yl)-4-(trifluoromethyl)benzyl)-1,8-diazaspiro[4.5]decane-8-carboxylate] | > 75% | < 100 nM | < 25% | > 1000 nM | < 25% | > 1000 nM | # (# is <25%) | # (# is <25%) | # (# is <25%) |
| O=C(OC(C(F)(F)F)C(F)(F)F)N1CCC2(CCCN2Cc2ccc(C(F)(F)F)cc2N2CCC(F)(F)CC2)CC1 [Example 90, 1,1,1,3,3,3-Hexafluoropropan-2-yl 1-(2-(4,4-difluoropiperidin-1-yl)-4-(trifluoromethyl)benzyl)-1,8-diazaspiro[4.5]decane-8-carboxylate] | > 75% | < 100 nM | < 25% | > 1000 nM | < 25% | > 1000 nM | ## (## is equal to or greater than 25% but less than 75%) | # (# is <25%) | # (# is <25%) |
| O=C(OC(C(F)(F)F)C(F)(F)F)N1CCC2(CCCN2Cc2ccc(C(F)(F)F)cc2N2CCC(F)CC2)CC1 [Example 91, 1,1,1,3,3,3-Hexafluoropropan-2-yl 1-(2-(4-fluoropiperidin-1-yl)-4-(trifluoromethyl)benzyl)-1,8-diazaspiro[4.5]decane-8-carboxylate] | > 75% | < 100 nM | < 25% | > 1000 nM | < 25% | > 1000 nM | ### (### is ≥75%) | # (# is <25%) | # (# is <25%) |
| CC(=O)NC1CCN(c2cc(C(F)(F)F)ccc2CN2CCCC23CCN(C(=O)OC(C(F)(F)F)C(F)(F)F)CC3)CC1 [Example 93, 1,1,1,3,3,3-Hexafluoropropan-2-yl 1-(2-(4-acetamidopiperidin-1-yl)-4-(trifluoromethyl)benzyl)-1,8-diazaspiro[4.5]decane-8-carboxylate] | > 75% | < 100 nM | < 25% | > 1000 nM | < 25% | > 1000 nM | ### (### is ≥75%) | # (# is <25%) | # (# is <25%) |
| CS(=O)(=O)NC1CCN(c2cc(C(F)(F)F)ccc2CN2CCCC23CCN(C(=O)OC(C(F)(F)F)C(F)(F)F)CC3)CC1 [Example 94, 1,1,1,3,3,3-Hexafluoropropan-2-yl 1-(2-(4-(methylsulfonamido)piperidin-1-yl)-4-(trifluoromethyl)benzyl)-1,8-diazaspiro[4.5]decane-8-carboxylate] | > 75% | < 100 nM | < 25% | > 1000 nM | < 25% | > 1000 nM | # (# is <25%) | # (# is <25%) | # (# is <25%) |
| O=C(OC(C(F)(F)F)C(F)(F)F)N1CCC2(CCCN2Cc2ccc(C(F)(F)F)cc2N2CCC2)CC1 [Example 96, 1,1,1,3,3,3-Hexafluoropropan-2-yl 1-(2-(azetidin-1-yl)-4-(trifluoromethyl)benzyl)-1,8-diazaspiro[4.5]decane-8-carboxylate] | > 75% | < 100 nM | < 25% | > 1000 nM | < 25% | > 1000 nM | ### (### is ≥75%) | # (# is <25%) | # (# is <25%) |
